According to US7186743B2, “Substituted pyrazolyl compounds for the treatment of inflammation” (Pharmacia Corporation, priority 2001, dated 2007):
Structures can show the parent of a compound that is named as a salt. Where two headings read alike, the source gives them in different places.

Target: T1, IKK2 (Homo sapiens, UniProt O14920)
T1 construct: made in house; host or cells: insect cells (baculovirus, pFastBac; SF9)
T1 sequence (O14920 1-756): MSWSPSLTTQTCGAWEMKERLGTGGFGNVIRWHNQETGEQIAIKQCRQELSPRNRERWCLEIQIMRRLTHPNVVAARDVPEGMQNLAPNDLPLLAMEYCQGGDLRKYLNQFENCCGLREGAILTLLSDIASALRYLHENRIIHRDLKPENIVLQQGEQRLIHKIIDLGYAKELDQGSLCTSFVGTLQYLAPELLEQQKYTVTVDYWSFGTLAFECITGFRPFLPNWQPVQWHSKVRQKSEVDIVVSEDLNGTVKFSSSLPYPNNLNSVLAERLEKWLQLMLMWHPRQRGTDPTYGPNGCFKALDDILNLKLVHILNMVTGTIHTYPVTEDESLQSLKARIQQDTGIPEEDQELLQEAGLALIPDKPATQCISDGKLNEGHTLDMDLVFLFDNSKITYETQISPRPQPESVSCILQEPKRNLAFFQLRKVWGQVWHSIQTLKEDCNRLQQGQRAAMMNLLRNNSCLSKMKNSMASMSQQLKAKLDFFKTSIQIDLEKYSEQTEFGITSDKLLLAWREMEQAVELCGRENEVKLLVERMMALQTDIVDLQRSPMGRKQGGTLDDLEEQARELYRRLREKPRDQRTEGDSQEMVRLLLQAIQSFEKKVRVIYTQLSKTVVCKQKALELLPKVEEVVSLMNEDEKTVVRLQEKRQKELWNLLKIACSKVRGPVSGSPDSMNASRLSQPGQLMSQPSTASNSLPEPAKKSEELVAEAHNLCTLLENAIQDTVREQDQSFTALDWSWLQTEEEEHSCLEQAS
Assay: IKKβ Resin Enzyme Assay (IKK2 resin)
Type: biochemical
Method in brief: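 Enzyme: human IKK2 with a C-terminal FLAG tag, baculovirus-expressed, purified as homodimer on anti-FLAG resin. It phosphorylates a biotinylated IκBα peptide with 1 μM ATP plus [γ-33P]ATP in 25 mM Hepes pH 7.6, Mg/Mn, for 30 min at 25° C. Incorporation is counted by scintillation after anion-exchange resin stop.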

[1] = Table 7, read-out: IKK2 Resin IC50
[2] = Table 3, read-out: IKK Resin IC50
[3] = Table 14, read-out: IKK2 Resin IC50
[4] = Table 18, read-out: IKK2 Resin IC50
[5] = Table 2, read-out: IKK Resin IC50
[6] = Table 4, read-out: IKK2 Resin IC50
[7] = Table 11, read-out: IKK2 Resin IC50

SMILES: CN1CCN(c2ccc(Cl)c(C(=O)Nc3ccc4c(c3)-c3c(c(C(N)=O)nn3-c3ccc(F)cc3)CC4)c2)CC1 [Example 258, 8-{[2-chloro-5-(4-methylpiperazin-1-yI)benzoyl]amino}-1-(4-fluorophenyl)-4,5-dihydro-1H-benzo[g]indazole-3-carboxamide]
- IC50 [1]: ≤ 1000 nM

SMILES: CSc1ccc(Cl)c(C(=O)Nc2ccc3c(c2)-c2c(c(C(N)=O)nn2-c2ccc(S(C)(=O)=O)cc2)CC3)c1 [Example 137, 8-{[2-chloro-5-(methylthio)benzoyl]amino}-1-[4-(methylsulfonyl)phenyl]-4,5-dihydro-1H-benzo[g]indazole-3-carboxamide]
- IC50 [2]: ≤ 1000 nM

SMILES: NC(=O)c1nn(-c2ccc(S(=O)(=O)C(F)(F)F)cc2)c2c1CCc1ccc(NC(=O)c3cccnc3Cl)cc1-2 [Example 359, 8-{[(2-chloropyridin-3-yl)carbonyl]amino}-1-{4-[(trifluoromethyl)sulfonyl]phenyl}-4,5-dihydro-1H-benzo[g]indazole-3-carboxamide]
- IC50 [3]: ≤ 1000 nM

SMILES: CCCS(=O)(=O)c1ccc(-n2nc(C(N)=O)c3c2-c2cc(NC(=O)c4ccccc4Cl)ccc2CC3)cc1 [Example 400, 8-[(2-chlorobenzoyl)amino]-1-[4-(propylsulfonyl)phenyl]-4,5-dihydro-1H-benzo[g]indazole-3-carboxamide]
- IC50 [4]: ≤ 1000 nM

SMILES: CCS(=O)(=O)c1ccc(-n2nc(C(N)=O)c3c2-c2cc(NC(=O)c4cc(NC(=O)OC(C)(C)C)ccc4Cl)ccc2CC3)cc1 [Example 397, tert-butyl 3-[({3-(aminocarbonyl)-1-[4-(ethylsulfonyl)phenyl]-4,5-dihydro-1H-benzo[g]indazol-8-yl}amino)carbonyl]-4-chlorophenylcarbamate]
- IC50 [4]: ≤ 1000 nM

SMILES: CS(=O)(=O)c1ccc(-n2nc(C(N)=O)c3c2-c2cc(NC(=O)c4cc5c(cc4Cl)OCO5)ccc2CC3)cc1 [Example 125, 8-{[(6-chloro-1,3-benzodioxol-5-yl)carbonyl]amino}-1-[4-(methylsulfonyl)phenyl]-4,5-dihydro-1H-benzo[g]indazole-3-carboxamide]
- IC50 [5]: ≤ 1000 nM

SMILES: COCCNC(=O)/C=C/c1ccc(-n2nc(C(N)=O)c3c2-c2cc(NC(=O)c4ccccc4Cl)ccc2CC3)cc1 [Example 309, 8-[(2-chlorobenzoyl)amino]-1-(4-{(1E)-3-[(2-methoxyethyl)amino]-3-oxoprop-1-enyl}phenyl)-4,5-dihydro-1H-benzo[g]indazole-3-carboxamide]
- IC50 (Table 12, read-out: IKK2 Resin IC50): ≤ 1000 nM

SMILES: CS(=O)(=O)c1ccc(-n2nc(C(N)=O)c3c2-c2cc(NC(=O)c4ccc(N=[N+]=[N-])cc4)ccc2CC3)cc1 [Example 122, 8-[(4-azidobenzoyl)amino]-1-[4-(methylsulfonyl)phenyl]-4,5-dihydro-1H-benzo[g]indazole-3-carboxamide]
- IC50 [5]: ≤ 1000 nM

SMILES: Cc1ccc([N+](=O)[O-])c(C(=O)Nc2ccc3c(c2)-c2c(c(C(N)=O)nn2-c2ccc(S(C)(=O)=O)cc2)CC3)c1 [Example 153]
- IC50 [2]: ≤ 1000 nM

SMILES: CN1CCN(c2ccc(Cl)c(C(=O)Nc3ccc4c(c3)-c3c(c(C(N)=O)nn3-c3ccc(F)cc3)CC4)n2)CC1 [Example 256, 8-({[3-chloro-6-(4-methylpiperazin-1-yl)pyridin-2-yl]carbonyl}amino)-1-(4-fluorophenyl)-4,5-dihydro-1H-benzo[g]indazole-3-carboxamide]
- IC50 [1]: ≤ 1000 nM

SMILES: CN(C)CCSc1ccc(Cl)c(C(=O)Nc2ccc3c(c2)-c2c(c(C(N)=O)nn2-c2ccc4c(c2)OCO4)CC3)n1 [Example 218, 1-(1,3-benzodioxol-5-yl)-8-{[(3-chloro-6-{[2-(dimethylamino)ethyl]thio}pyridin-2-yl)carbonyl]amino}-4,5-dihydro-1H-benzo[g]indazole-3-carboxamide]
- IC50 (Table 5, read-out: IKK2 Resin Avg. IC50): ≤ 1000 nM

SMILES: CS(=O)(=O)c1ccc(-n2nc(C(N)=O)c3c2-c2cc(NC(=O)c4cccc(Cl)c4Cl)ccc2CC3)cc1 [Example 96, 8-[(2,3-dichlorobenzoyl)amino]-1-[4-(methylsulfonyl)phenyl]-4,5-dihydro-1H-benzo[g]indazole-3-carboxamide]
- IC50 [5]: ≤ 1000 nM

SMILES: NC(=O)c1nn(-c2ccc3c(c2)OCO3)c2c1CCc1ccc(NC(=O)c3cc(N)ccc3Cl)cc1-2 [Example 172, 8-[(5-amino-2-chlorobenzoyl)amino]-1-(1,3-benzodioxol-5-yl)-4,5-dihydro-1H-benzo[g]indazole-3-carboxamide]
- IC50 [6]: ≤ 1000 nM

SMILES: NC(=O)c1nn(-c2ccc3c(c2)OCO3)c2c1CCc1ccc(NC(=O)CNC3CCC3)cc1-2 [Example 445, 1-(1,3-benzodioxol-5-yl)-8-[(N-cyclobutylglycyl)amino]-4,5-dihydro-1H-benzo[g]indazole-3-carboxamidehydrochloride]
- IC50 (Table 23, read-out: IKK2 Resin IC50): ≤ 1000 nM

SMILES: NC(=O)c1nn(-c2ccncc2)c2c1CCc1ccc(NC(=O)c3ccccc3Cl)cc1-2 [Example 338, 8-[(2-chlorobenzoyl)amino]-1-pyridin-4-yl-4,5-dihydro-1H-benzo[g]mdazole-3-carboxamide]
- IC50 [3]: ≤ 1000 nM

SMILES: CS(=O)(=O)c1ccc(-n2nc(C(N)=O)c3c2-c2cc(NC(=O)c4ccc(Cl)c(N)c4)ccc2CC3)cc1 [Example 113, 8-[(3-amino-4-chlorobenzoyl)amino]-1-[4-(methylsulfonyl)phenyl]-4,5-dihydro-1H-benzo[g]indazole-3-carboxamide]
- IC50 [5]: ≤ 1000 nM

SMILES: NC(=O)c1nn(-c2ccc3c(c2)OCO3)c2c1CCc1ccc(NC(=O)c3ccc(Cl)cc3Cl)cc1-2 [Example 195, 1-(1,3-benzodioxol-5-yl)-8-[(2,4-dichlorobenzoyl)amino]-4,5-dihydro-1H-benzo[g]indazole-3-carboxamide]
- IC50 [6]: ≤ 1000 nM

SMILES: Cc1ccc(C(=O)Nc2ccc3c(c2)-c2c(c(C(N)=O)nn2-c2ccc(S(C)(=O)=O)cc2)CC3)c(Cl)n1 [Example 138, 8-{[(2-chloro-6-methylpyridin-3-yl)carbonyl]amino}-1-[4-(methylsulfonyl)phenyl]-4,5-dihydro-1H-benzo[g]indazole-3-carboxamide]
- IC50 [2]: ≤ 1000 nM

SMILES: NC(=O)c1nn(-c2ccc(/C=C/CCO)cc2)c2c1CCc1ccc(NC(=O)c3ccccc3Cl)cc1-2 [Example 298, 8-[(2-chlorobenzoyl)amino]-1-{4-[(1E)-4-hydroxybut-1-enyl]phenyl}-4,5-dihydro-1H-benzo[g]indazole-3-carboxamide]
- IC50 [7]: ≤ 1000 nM

SMILES: NC(=O)c1nn(-c2cccs2)c2c1CCc1ccc(NC(=O)c3ccncc3Cl)cc1-2 [Example 382, 8-[(3-chloroisonicotinoyl)amino]-1-thien-2-yl-4,5-dihydro-1H-benzo[g]indazole-3-carboxamide]
- IC50 (Table for Examples 381-385 (headed TABLE 14), read-out: IKK2 Resin IC50): ≤ 1000 nM

SMILES: CC(=O)Nc1ccc(-n2nc(C(N)=O)c3c2-c2cc(NC(=O)c4ccccc4Cl)ccc2CC3)cc1 [Example 371, 1-[4-(acetylamino)phenyl]-8-[(2-chlorobenzoyl)amino]-4,5-dihydro-1H-benzo[g]indazole-3-carboxamide]
- IC50 (Table 15, read-out: IKK2 Resin IC50): ≤ 1000 nM

SMILES: NC(=O)c1nn(-c2ccc(O)cc2)c2c1CCc1ccc(NC(=O)c3cc(N)ccc3Cl)cc1-2 [Example 280, 8-[(5-amino-2-chlorobenzoyl)amino]-1-(4-hydroxyphenyl)-4,5-dihydro-1H-benzo[g]indazole-3-carboxamide]
- IC50 (Table 10, read-out: IKK2 Resin IC50): ≤ 1000 nM

SMILES: NC(=O)c1nn(-c2ccc(/C=C\CO)cc2)c2c1CCc1ccc(NC(=O)c3cccnc3Cl)cc1-2 [Example 300, 8-{[(2-chloropyridin-3-yl)carbonyl]amino}-1-{4-[(1Z)-3-hydroxyprop-1-enyl]phenyl}-4,5-dihydro-1H-benzo[g]indazole-3-carboxamide]
- IC50 [7]: ≤ 1000 nM

SMILES: CS(=O)(=O)c1ccc(-n2nc(C(N)=O)c3c2-c2cc(NC(=O)c4ccccc4)ccc2CC3)cc1 [Example 140, 8-(benzoylamino)-1-[4-(methylsulfonyl)phenyl]-4,5-dihydro-1H-benzo[g]indazole-3-carboxamide]
- IC50 [2]: ≤ 1000 nM

SMILES: CS(=O)(=O)c1ccc(-n2nc(C(N)=O)c3c2-c2cc(NC(=O)c4cccc([N+](=O)[O-])c4Cl)ccc2CC3)cc1 [Example 135, 8-[(2-chloro-3-nitrobenzoyl)amino]-1-[4-(methylsulfonyl)phenyl]-4,5-dihydro-1H-benzo[g]indazole-3-carboxamide]
- IC50 [2]: ≤ 1000 nM

SMILES: NC(=O)c1nn(-c2ccc(F)cc2)c2c1CCc1ccc(NC(=O)c3cccc(N)c3Cl)cc1-2 [Example 229, 8-[(3-amino-2-chlorobenzoyl)amino]-1-(4-fluorophenyl)-4,5-dihydro-1H-benzo[g]indazole-3-carboxamide]
- IC50 (Table 6, read-out: IKK2 Resin IC 50): ≤ 1000 nM
